The structures appear in SMILES notation. pIC50: −log10 of the molar value. Bounds are passed on as bounds.

This assay concerns the target T1, recombinant human GST-SYK (Homo sapiens, UniProt P43405).
T1 construct: purchased Carna Biosciences 08-176
As to the kind of experiment: Homogeneous Time-Resolved Fluorescence (HTRF) assay for the recombinant human SYK enzyme. The format is biochemical. The settings on record: recombinant human GST-SYK 5 pM, ATP 25 μM, 10-dose titration; read-out: rhSYK Activity (IC50). The method, then: Homogeneous Time-Resolved Fluorescence (HTRF) Assay for the Recombinant Human SYK Enzyme:
A recombinant GST-hSYK fusion protein was used to measure potency of compounds to inhibit human SYK activity. The recombinant human GST-SYK (Carna Biosciences #08-176) (5 pM final concentration) was incubated with various concentrations of the inhibitor diluted in DMSO (0.1% final concentration) for 10 minutes at room temperature in 15 mM Tris-HCl (pH 7.5), 0.01% tween 20, 2 mM DTT in 384 well plate format. To initiate the reaction the biotinylated substrate peptide (250 nM final concentration) that contains the phosphorylation site for SYK was added with magnesium (5 mM final concentration) and ATP (25 μM final concentration). Final volume of the reaction was 10 μL. Phosphorylation of the peptide was allowed to proceed for 45′ at room temperature. To quench the reaction and detect the phosphorylated product, 2 nM of a Europium-atiti-phosphotyrosine antibody (Perkin Elmer #AD0161) and 70 nM SA-APC (Perkin-Elmer #CR130-100) were added together in 15 mM Tris pH 7.5, 40 mM EDTA, 0.01% tween 20. Final volume of the quenching solution was 10 μL. The resulting HTRF signal was measured after 30 minutes on a EnVision (Perkin-Elmer) reader using a time-resolved fluorescence protocol.
Background: In TR-FRET formats the signal depends on donor and acceptor labels being close together.
As usually defined, the pIC50 is −log10 of the IC50, conventionally taken in molar units. For `Nc1ncc(-c2cccc(Nc3nccc(C(F)(F)F)n3)c2)s1` [Example 181, N-[3-(2-amino-1,3-thiazol-5-yl)phenyl]-4-(trifluoromethyl)pyrimidin-2-amine], the pIC50 is at least 7.00.
Under `OCC1C2CN(c3ncc(-c4cccc(Nc5nccc(C(F)(F)F)n5)c4)s3)CC12` (stereo not drawn) [Example 171] stands at least 7.00.
Under `Cc1cc(Nc2nccc(C(F)(F)F)n2)cc(-c2cnc(N3CCC(c4ccc(S(C)(=O)=O)cc4)CC3)s2)c1` [Example 146] stands 5.00 to 6.00.
Under `Cc1cc(Nc2nccc([S+](C)[O-])n2)cc(-c2cnc(N3CCCNC(=O)C3)s2)c1` (stereo not drawn) [Example 223, 4-[5-(3-methyl-5-{[4-(methylsulfinyl)pyrimidin-2-yl]amino}phenyl)-1,3-thiazol-2-yl]-1,4-diazepan-2-one] stands at least 7.00.
Consider `Cc1cc(Nc2nccc(C(F)(F)F)n2)cc(-c2cnc(N(C)CCc3c[nH]c4ccccc34)s2)c1` [Example 90], for which the pIC50 was 6.00 to 7.00.
Under `FC(F)(F)c1ccnc(Nc2cccc(-c3cnc(N4CCOC(C(F)(F)F)C4)s3)c2)n1` (stereo not drawn) [Example 121] stands 6.00 to 7.00; under `CCOCCNc1ncc(-c2cccc(Nc3nccc(C(F)(F)F)n3)c2)s1` [Example 34], at least 7.00; under `NC(=O)C1CCN(c2nc(-c3cccc(Nc4nccc(C(F)(F)F)n4)c3)cs2)CC1` [Example 230, 1-[4-(3-{[4-(trifluoromethyl)pyrimidin-2-yl]amino}phenyl)-1,3-thiazol-2-yl]piperidine-4-carboxamide], 6.00 to 7.00.
Under `FC(F)(F)c1ccnc(Nc2cccc(-c3cnc(NCC4CCCNC4)s3)c2)n1` (stereo not drawn) [Example 59] stands at least 7.00; under `Cc1cc(Nc2nccc(C(F)(F)F)n2)cc(-c2cnc(NCc3cc(C)on3)s2)c1` [Example 97], at least 7.00; under `CC(=O)NCCC1CCN(c2ncc(-c3cc(C)cc(Nc4nccc(C(F)(F)F)n4)c3)s2)CC1` [Example 150], at least 7.00.
Next, `Cc1cc(Nc2nccc(C(F)(F)F)n2)cc(-c2cnc(NCCc3ncn[nH]3)s2)c1` [Example 106]: at least 7.00; `Cn1cc(CNc2ncc(-c3cccc(Nc4nccc(C(F)(F)F)n4)c3)s2)cn1` [Example 62]: at least 7.00; `Cc1cc(Nc2nccc(OC3CCOC3)n2)cc(-c2cnc(N3CCCNC(=O)C3)s2)c1` (stereo not drawn) [Example 214]: at least 7.00.
On to `Cc1cc(Nc2nccc(C(F)(F)F)n2)cc(-c2cnc(NCc3cncn3C)s2)c1` [Example 87], for which the negative logarithm of the IC50 (pIC50) is at least 7.00.
As for `Cc1cc(Nc2nccc(OC3CCNCC3)n2)cc(-c2cnc(N3CCCNC(=O)C3)s2)c1` [Example 215, 4-[5-(3-methyl-5-{[4-(piperidin-4-yloxy)pyrimidin-2-yl]amino}phenyl)-1,3-thiazol-2-yl]-1,4-diazepan-2-one], the pIC50 was at least 7.00.
Next, `FC(F)(F)c1ccnc(Nc2cccc(-c3cnc(NCc4c[nH]nn4)s3)c2)n1` [Example 41]: at least 7.00; `O=C(O)c1cccc(N2CCN(c3ncc(-c4cccc(Nc5nccc(C(F)(F)F)n5)c4)s3)CC2)c1` [Example 125]: at least 7.00; `O=C1CCN(c2ncc(-c3cccc(Nc4nccc(C(F)(F)F)n4)c3)s2)CCN1` [Example 168]: at least 7.00.
Turning to `CCC(O)CNc1ncc(-c2cccc(Nc3nccc(C(F)(F)F)n3)c2)s1` (stereo not drawn) [Example 9], the pIC50 is at least 7.00.
Under `FC(F)CNc1ncc(-c2cccc(Nc3nccc(C(F)(F)F)n3)c2)s1` [Example 38] stands at least 7.00; under `Cc1cc(Nc2ncc(Cl)cn2)cc(-c2cnc(N3CCCNC(=O)C3)s2)c1` [Example 200, 4-(5-{3-[(5-chloropyrimidin-2-yl)amino]-5-methylphenyl}-1,3-thiazol-2-yl)-1,4-diazepan-2-one], at least 7.00.
As to `Cc1cc(Nc2nccc(C(F)(F)F)n2)cc(-c2cnc(N3CCOCC3)s2)c1` [Example 122], the negative logarithm of the IC50 (pIC50) is at least 7.00.
Under `O=C1CCCN1CCNc1ncc(-c2cccc(Nc3nccc(C(F)(F)F)n3)c2)s1` [Example 51] stands at least 7.00.

For the origin of these results see patent US8735417B2, “Aminopyrimidines as Syk inhibitors” (Merck Sharp & Dohme Corp., priority 2009, dated 2014).
